Laboratory results from US20260102501A1, “ANTI-CANCER NUCLEAR HORMONE RECEPTOR-TARGETING COMPOUNDS” (Nuvation Bio Inc., priority 2022, published 2026).
Counter-ions that a name gives are not always drawn. Like-named read-outs stand apart in the source and are kept apart here. Numbered stars: 1 amine (or outer) side, 2 acyl side, 3 side chain; on linkers, the order of the positions; unused ones are H or OH. Square brackets hold non-standard residues; d marks the D form. Peptide text beside a SMILES is read from it. * marks the point of attachment. X1 = CC(=O)O[C@]1(C(C)=O)CC[C@H]2[C@@H]3CCC4=CC(=O)CCC4=C3[C@@H](c3ccc(*)cc3)C[C@@]21C; Exatecan = CC[C@@]1(O)C(=O)OCc2c1cc1n(c2=O)Cc2c-1nc1cc(F)c(C)c3c1c2[C@@H](N*)CC3; NHCH2OCH2CO = O=C(COCN[*:1])[*:2]; Sar = CNCC(=O)O

How the values were obtained:
[1] = target: T1, GR (cytosol from IM-9 cells) (Homo sapiens, UniProt P04150); assay: GR binding assay (3H-Dexamethasone displacement)
T1 sequence (P04150 1-777): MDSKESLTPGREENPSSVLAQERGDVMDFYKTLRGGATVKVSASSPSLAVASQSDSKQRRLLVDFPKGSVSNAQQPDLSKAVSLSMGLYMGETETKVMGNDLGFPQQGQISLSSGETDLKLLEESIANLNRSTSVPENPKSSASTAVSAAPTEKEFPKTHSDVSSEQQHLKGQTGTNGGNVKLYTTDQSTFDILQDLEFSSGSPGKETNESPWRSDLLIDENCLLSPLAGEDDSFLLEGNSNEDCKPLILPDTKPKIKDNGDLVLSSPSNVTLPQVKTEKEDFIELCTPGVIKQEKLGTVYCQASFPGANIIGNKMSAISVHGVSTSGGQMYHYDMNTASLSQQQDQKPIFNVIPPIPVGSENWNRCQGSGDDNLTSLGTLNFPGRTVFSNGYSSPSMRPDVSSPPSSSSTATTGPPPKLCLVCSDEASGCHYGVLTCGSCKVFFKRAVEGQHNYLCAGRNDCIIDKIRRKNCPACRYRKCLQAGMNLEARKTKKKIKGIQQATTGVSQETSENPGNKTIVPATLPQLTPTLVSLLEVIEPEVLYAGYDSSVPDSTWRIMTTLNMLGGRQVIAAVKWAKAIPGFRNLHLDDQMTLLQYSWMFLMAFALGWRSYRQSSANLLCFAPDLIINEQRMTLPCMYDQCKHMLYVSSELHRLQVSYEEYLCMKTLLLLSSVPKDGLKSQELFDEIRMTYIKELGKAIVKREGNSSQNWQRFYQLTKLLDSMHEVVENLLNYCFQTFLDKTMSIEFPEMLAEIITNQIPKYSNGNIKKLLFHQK

[2] = tested on: LNCap cells; assay: Cell viability assay (CellTiterGlo); format: cell-based; conditions: Homo sapiens, 144 h
[3] = target: T2, ligand binding domain of the glucocorticoid receptor (HEK293 cells stably expressing) (Homo sapiens, UniProt P04150); assay: GR antagonism assay (luciferase reporter)
T2 sequence (P04150 524-758 limits assumed): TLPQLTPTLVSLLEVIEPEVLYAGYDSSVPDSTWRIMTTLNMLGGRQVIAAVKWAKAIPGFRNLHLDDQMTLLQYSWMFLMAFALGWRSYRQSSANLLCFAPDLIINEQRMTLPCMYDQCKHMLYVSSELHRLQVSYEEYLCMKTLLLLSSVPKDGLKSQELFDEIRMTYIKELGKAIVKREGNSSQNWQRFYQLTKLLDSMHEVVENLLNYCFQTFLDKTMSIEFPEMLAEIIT

[4] = target: T3, full-length androgen receptor (HEK293 cells stably expressing) (Homo sapiens, UniProt P10275); assay: AR antagonism assay (luciferase reporter)
T3 sequence (P10275 1-920): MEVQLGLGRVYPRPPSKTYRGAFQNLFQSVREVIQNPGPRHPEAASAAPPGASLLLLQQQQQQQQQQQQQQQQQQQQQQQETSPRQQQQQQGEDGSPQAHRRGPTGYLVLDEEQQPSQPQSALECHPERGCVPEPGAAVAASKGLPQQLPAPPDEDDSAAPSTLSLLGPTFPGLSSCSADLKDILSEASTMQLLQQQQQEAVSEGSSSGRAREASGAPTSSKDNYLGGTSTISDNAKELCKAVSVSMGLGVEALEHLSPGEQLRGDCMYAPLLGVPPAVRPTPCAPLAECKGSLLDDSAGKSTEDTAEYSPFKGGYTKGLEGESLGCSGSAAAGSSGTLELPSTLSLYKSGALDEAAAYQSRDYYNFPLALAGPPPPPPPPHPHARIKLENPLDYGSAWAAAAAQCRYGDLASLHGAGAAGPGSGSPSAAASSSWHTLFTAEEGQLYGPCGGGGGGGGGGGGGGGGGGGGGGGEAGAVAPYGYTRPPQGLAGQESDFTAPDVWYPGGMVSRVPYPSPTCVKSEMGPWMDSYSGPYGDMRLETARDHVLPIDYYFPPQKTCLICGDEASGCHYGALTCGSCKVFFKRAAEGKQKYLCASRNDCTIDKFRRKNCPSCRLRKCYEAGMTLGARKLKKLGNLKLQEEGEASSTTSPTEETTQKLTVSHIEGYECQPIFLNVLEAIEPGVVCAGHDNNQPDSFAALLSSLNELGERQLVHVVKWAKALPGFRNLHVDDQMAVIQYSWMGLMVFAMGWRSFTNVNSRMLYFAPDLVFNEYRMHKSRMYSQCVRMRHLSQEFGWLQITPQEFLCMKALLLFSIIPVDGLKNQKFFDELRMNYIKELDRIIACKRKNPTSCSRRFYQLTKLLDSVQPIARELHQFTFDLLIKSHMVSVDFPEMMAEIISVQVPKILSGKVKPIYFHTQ
Procedure: AR antagonism assay: To evaluate AR antagonist activity, test compound was added to the assay plate (top dose 10 μM, 3 fold serial dilution, 10 point dose response). HEK293 cells stably expressing the full-length androgen receptor were seeded at a density of 20000 cells/well in the assay plate. The assay plate was then incubated at room temperature for 10 minutes and at 37° C. 5% CO2 for 20 minutes. Testosterone was added to the assay plate at 1 nM final concentration and the assay plate incubated at 37° C., 5% CO2 for 20 h. […] Steady-glo was added to the assay plate and mixed at room temperature for 20 minutes on an orbital shaker, before reading out on the En Vision plate reader.

[5] = 6 days incubation, CellTiterGlo, read-out: LNCap (IC50)

Structure (SMILES) | IC50 [1] [nM] | IC50 [2, 5] [nM] | IC50 [3] [nM] | IC50 [4] [nM] | IC50 ([2]; read-out: LNCap (IC50, nM)) [nM]
CC[C@@]1(O)C(=O)OCc2c1cc1n(c2=O)Cc2c-1nc1cc(F)c(C)c3c1c2[C@@H](N(C)C(=O)COCC1CCN(CCCCCCCN(C)c2ccc([C@H]4C[C@@]5(C)[C@@H](CC[C@]5(OC(C)=O)C(C)=O)[C@@H]5CCC6=CC(=O)CCC6=C54)cc2)CC1)CC3 [Compound 55, (8S,11R,13S,14S,17R)-17-acetyl-11-(4-((7-(4-((2-(((1S,9S)-9-ethyl-5-fluoro-9-hydroxy-4-methyl-10,13-dioxo-2,3,9,10,13,15-hexahydro-1H,12H-benzo[de]pyrano[3′,4′:6,7]indolizino[1,2-b]quinolin-1-yl)(methyl)amino)-2-oxoethoxy)methyl)piperidin-1-yl)heptyl)(methyl)amino)phenyl)-13-methyl-3-oxo-2,3,6,7,8,11,12,13,14,15,16,17-dodecahydro-1H-cyclopenta[a]phenanthren-17-yl acetate] | < 10 | 101 to 1000 | 10 to 100 | 101 to 1000 | –
CC[C@@]1(O)C(=O)OCc2c1cc1n(c2=O)Cc2cc3c(CN(C)C)c(OC(=O)N4CCN(CC5CCN(c6ccc(C(=O)N[C@H]7CC[C@H](Oc8ccc(C#N)c(Cl)c8C)CC7)nn6)CC5)CC4)ccc3nc2-1 [Compound 31, (S)-10-((Dimethylamino)methyl)-4-ethyl-4-hydroxy-3,14-dioxo-3,4,12,14-tetrahydro-1H-pyrano[3′,4′:6,7]indolizino[1,2-b]quinolin-9-yl 4-((1-(6-(((1r,4r)-4-(3-chloro-4-cyano-2-methylphenoxy)cyclohexyl)carbamoyl)pyridazin-3-yl)piperidin-4-yl)methyl)piperazine-1-carboxylate Formate] | > 1000 | – | > 1000 | > 1000 | 10 to 100
CC[C@@]1(O)C(=O)OCc2c1cc1n(c2=O)Cc2cc3c(CN(C)C)c(OCC4CCN(C(=O)CN(C)c5ccc([C@H]6C[C@@]7(C)[C@@H](CC[C@]7(OC(C)=O)C(C)=O)[C@@H]7CCC8=CC(=O)CCC8=C76)cc5)CC4)ccc3nc2-1 [Compound No. 19, (8S,11R,13S,14S,17R)-17-Acetyl-11-(4-((2-(4-((((S)-10-((dimethylamino)methyl)-4-ethyl-4-hydroxy-3,14-dioxo-3,4,12,14-tetrahydro-1H-pyrano[3′,4′:6,7]indolizino[1,2-b]quinolin-9-yl)oxy)methyl)-piperidin-1-yl)-2-oxoethyl)(methyl)amino)phenyl)-13-methyl-3-oxo-2,3,6,7,8,11,12,13,14,15,16,17-dodeca-hydro-1H-cyclopenta[a]phenanthren-17-yl acetate] | < 10 | 101 to 1000 | 10 to 100 | > 1000 | –
CC[C@@]1(O)C(=O)OCc2c1cc1n(c2=O)Cc2c-1nc1cc(F)c(C)c3c1c2[C@@H](NC(=O)COCNC(=O)CNC(=O)[C@H](Cc1ccccc1)NC(=O)CNC(=O)CN(C)c1ccc([C@H]2C[C@@]4(C)[C@@H](CC[C@]4(OC(C)=O)C(C)=O)[C@@H]4CCC5=CC(=O)CCC5=C42)cc1)CC3 [Compound 34, (8S,11R,13S,14S,17R)-17-Acetyl-11-(4-(((S)-10-benzyl-1-(((1S,9S)-9-ethyl-5-fluoro-9-hydroxy-4-methyl-10,13-dioxo-2,3,9,10,13,15-hexahydro-1H,12H-benzo[de]pyrano[3′,4′:6,7]indolizino[1,2-b]quinolin-1-yl)amino)-1,6,9, 12,15-pentaoxo-3-oxa-5,8,11,14-tetraazahexadecan-16-yl)(methyl)amino)phenyl)-13-methyl-3-oxo-2,3,6,7,8,11,12,13,14,15,16,17-dodecahydro-1H-cyclopenta[a]phenanthren-17-yl Acetate] (X1-[Sar]GFG[NHCH2OCH2CO]-Exatecan) | < 10 | – | 101 to 1000 | > 1000 | –
CC[C@@]1(O)C(=O)OCc2c1cc1n(c2=O)Cc2c-1nc1cc(F)c(C)c3c1c2[C@@H](NCC1CCN(CC2CCN(C(=O)CN(C)c4ccc([C@H]5C[C@@]6(C)[C@@H](CC[C@]6(OC(C)=O)C(C)=O)[C@@H]6CCC7=CC(=O)CCC7=C65)cc4)CC2)CC1)CC3 [Compound No. 51, (8S,11R,13S,14S,17R)-17-acetyl-11-(4-((2-(4-((4-((((1S,9S)-9-ethyl-5-fluoro-9-hydroxy-4-methyl-10,13-dioxo-2,3,9,10,13,15-hexahydro-1H,12H-benzo[de]pyrano[3′,4′:6,7]indolizino[1,2-b]quinolin-1-yl)amino)methyl)piperidin-1-yl)methyl)piperidin-1-yl)-2-oxoethyl)(methyl)amino)phenyl)-13-methyl-3-oxo-2,3,6,7,8,11,12,13,14,15,16,17-dodecahydro-1H-cyclopenta[a]phenanthren-17-yl acetate] | 10 to 100 | 10 to 100 | 10 to 100 | 10 to 100 | –
CC[C@@]1(O)C(=O)OCc2c1cc1n(c2=O)Cc2cc3c(CN4CCN(C(=O)C5CCN(c6ccc(C(=O)N[C@H]7CC[C@H](Oc8ccc(C#N)c(Cl)c8C)CC7)nn6)CC5)CC4)c(OC(=O)N4C[C@H](C)N(C)C[C@H]4C)ccc3nc2-1 [Compound 30, (S)-10-((4-(1-(6-(((1r,4r)-4-(3-Chloro-4-cyano-2-methylphenoxy)cyclohexyl)carbamoyl)-pyridazin-3-yl)piperidine-4-carbonyl)piperazin-1-yl)methyl)-4-ethyl-4-hydroxy-3,14-dioxo-3,4,12,14-tetrahydro-1H-pyrano[3′,4′:6,7]indolizino[1,2-b]quinolin-9-yl (2R,5S)-2,4,5-trimethylpiperazine-1-carboxylate Formate] | > 1000 | – | > 1000 | > 1000 | 10 to 100
CC[C@@]1(O)C(=O)OCc2c1cc1n(c2=O)Cc2c-1nc1cc(F)c(C)c3c1c2[C@@H](NC(=O)COCCCCCCN(C)c1ccc([C@H]2C[C@@]4(C)[C@@H](CC[C@]4(OC(C)=O)C(C)=O)[C@@H]4CCC5=CC(=O)CCC5=C42)cc1)CC3 [Compound No. 47, (8S,11R,13S,14S,17R)-17-acetyl-11-(4-((6-(2-(((1S,9S)-9-ethyl-5-fluoro-9-hydroxy-4-methyl-10,13-dioxo-2,3,9,10,13,15-hexahydro-1H,12H-benzo[de]pyrano [3′,4′:6,7]indolizino[1,2-b]quinolin-1-yl)amino)-2-oxoethoxy)hexyl)(methyl)amino)phenyl)-13-methyl-3-oxo-2,3,6,7,8,11,12,13,14,15,16,17-dodecahydro-1H-cyclopenta[a]phenanthren-17-yl acetate] | < 10 | 10 to 100 | 101 to 1000 | 10 to 100 | –
